The source of these data is PMC8225045, “Chemical Synthesis and Structure-Activity Relationship Study Yield Desotamide a Analogues with Improved Antibacterial Activity” (Marine Drugs, 2021).

In brackets after ≈: the same amount, converted by molar mass. Non-standard residues stand in square brackets, D forms with d. Residues, ends and D or L forms follow the SMILES beside them. A value given as a limit tells only on which side of the number the result lay.

The subject of one test is Staphylococcus aureus. Details: method as in PMID 25229313. As to conditions: previous report; cited from earlier work.
Test [1] deals with Enterococcus gallinarum LJH11. Nature of the test: microbe, parasite or virus in culture. How it is done: (§1) All the synthesized cyclopeptides (7–19) and the desotamide A (1) isolated from S. scopuliridis SCSIO ZJ46 were evaluated for antibacterial activities against a series of Gram-positive pathogens including […] Staphylococcus aureus ATCC29213, Bacillus subtilis BS01, Micrococcus luteus ML01, Enterococcus faecalis ATCC29212; 3 drug-resistant poultry pathogens Staphylococcus simulans LJH13, Enterococcus gallinarum LJH11, Staphylococcus haemolyticus LJH9; 4 clinical methicillin-resistant Staphylococcus aureus (MRSA) shhs-E1, MRSA 16339, MRSA 745524, MRSA 16162. Their antibacterial activities against the […] pathogens Escherichia coli ATCC 13,124 and clinical drug-resistant Klebsiella pneumonia 15580 were also assayed.
(§2) Ampicillin, vancomycin and polymyxin were used as control. The maximum test concentrations for all the compounds were 128 μg/mL.

A further test relates to MRSA 745524. Nature of the test: microbe, parasite or virus in culture. The following applies: 745524. The protocol: as §1, §2
For a further test, the system named is Micrococcus luteus ML01. Nature of the test: microbe, parasite or virus in culture. The following applies: ML01. The protocol:
as §1, §2

The test system of another test is Bacillus subtilis BS01. Put plainly: microbe, parasite or virus in culture. As to conditions: BS01. The protocol: as §1, §2
Test [2] relates to Enterococcus faecalis ATCC 29212. Nature of the test: microbe, parasite or virus in culture. The following applies: ATCC 29212. How it is done: as §1, §2
In test [3] the test system is Staphylococcus simulans LJH13. Put plainly: microbe, parasite or virus in culture. How it is done:
as §1, §2

Test [4] relates to methicillin-resistant Staphylococcus aureus (MRSA) shhsE1. Nature of the test: microbe, parasite or virus in culture. The following applies: methicillin-resistant shhsE1. The protocol:
as §1, §2

For the next test, the system named is MRSA 16162. Put plainly: microbe, parasite or virus in culture. As to conditions: 16162. The protocol: as §1, §2
For another test, the system named is MRSA 16339. Nature of the test: microbe, parasite or virus in culture. As to conditions: 16339. The protocol: as §1, §2
In test [5] the test system is Staphylococcus aureus ATCC 29213. Nature of the test: microbe, parasite or virus in culture. The following applies: ATCC 29213. The protocol: as §1, §2
For test [6], the system named is Staphylococcus haemolyticus LJH9. Nature of the test: microbe, parasite or virus in culture. How it is done:
as §1, §2

The test system of a further test is Gram-negative pathogens. The following applies: weak activity; summary of Table 1. The protocol: as §1, §2
The test system of a further test is E. coli ATCC 13124. The following applies: ATCC 13124. The protocol:
as §1, §2

A further test deals with Gram-positive pathogens. The protocol: as §1, §2
Test [7] concerns Klebsiella pneumoniae 15580. As to conditions: 15580. The protocol:
as §1, §2

The conditions of test [8]: no notable antibacterial activities; cited from earlier work. From the text: Comparison of the naturally produced desotamides, a preliminary SAR of this class of compounds has been defined.

Turning to wollamide A [Compound 6], the “antibacterial activity against Staphylococcus aureus (in words)” value with Staphylococcus aureus is reported as “no antibacterial”.
Turning to `CC[C@H](C)[C@@H]1NC(=O)[C@H](CC(N)=O)NC(=O)[C@@H](CCCCN)NC(=O)[C@H](Cc2c[nH]c3ccccc23)NC(=O)[C@H](CC(C)C)NC(=O)[C@@H](CC(C)C)NC1=O` [Compound 13, Desotamide A4] (cyclo(I[dL]LW[dK]N)), the MIC in test [1] is 64 µg/mL (≈ 83.3 µM); in the test on MRSA 745524, 16 µg/mL (≈ 20.8 µM); against Micrococcus luteus ML01 it was 8 µg/mL (≈ 10.4 µM); with Bacillus subtilis BS01, 8 µg/mL (≈ 10.4 µM); in test [2] it was 32 µg/mL (≈ 41.7 µM); in [3], 8 µg/mL (≈ 10.4 µM). The MIC turned out to be 16 µg/mL (≈ 20.8 µM) in [4]; 16 µg/mL (≈ 20.8 µM) against MRSA 16162; 16 µg/mL (≈ 20.8 µM) in the test on MRSA 16339; 16 µg/mL (≈ 20.8 µM) in [5]; 32 µg/mL (≈ 41.7 µM) in [6]; 64 µg/mL (≈ 83.3 µM) in the test with E. coli ATCC 13124. In test [7], this compound displayed an MIC greater than 128 µg/mL. Moreover, the “MIC against the Gram-negative pathogens tested (summary)” value with Gram-negative pathogens was 64 to 128 µg/mL. The “MIC values against Gram-positive pathogens (summary over the panel)” value in the test with Gram-positive pathogens is 8 to 32 µg/mL. For the same compound, the “fold increase of antibacterial activities compared to desotamide A (1)” value in the test with Gram-positive pathogens (entire test panel of Gram-positive bacteria) is recorded as 2–4 fold. Further, in the test with Gram-positive pathogens (summary, Figure 2), the “Gram positive antibacterial activity for desotamides (in words)” value was 2–4-Fold more active than 1.
In the case of desotamide G [Compound 5], the “MIC, antibacterial activities” value in test [8] is greater than 113 µg/mL.
